Patent US8748462B2, “Spirocyclic GPR40 modulators” (Amgen Inc., priority 2008, dated 2014)

Experiments:
human GPR40 [1] = molecular target: T1, human GPR40 (Homo sapiens, UniProt O14842); test: Cell-based aequorin assay; conditions: CHO cells stably transfected with GPR40 and aequorin; 0.01% HSA
T1 construct: expressed in transfected cells; host or cells: CHO cells stably transfected with GPR40 and Aequorin
Procedure: Cell-based aequorin assays were employed to characterize the modulatory activity of compounds on the GPR40 signaling pathway. In an exemplary assay, CHO cells were stably transfected with both GPR40 and Aequorin (Euroscreen). Cells were detached from the tissue culture dish with 2 mL of trypsin (0.25% (w/v)). Trypsinization was halted with 28 mL of Hanks Buffered Salt Solution containing 20 mM Hepes (H/HBSS) and 0.01% fatty acid-free human serum albumin (HSA). Coelantrazine is added to 1 ug/mL, and the cells were incubated for 2 hours at room temperature. Compounds were dissolved in DMSO for preparation of 10 mM stock solutions. Compounds were diluted in H/HBSS containing 0.01% HSA. Serial dilutions of the test compounds were prepared to determine dose response.
Aequorin luminescence measurements were made using an EG&G Berthold 96-well luminometer, and the response was measured over a 20 second interval after cells and compounds were mixed. The maximum relative light units was plotted to determine dose response. The EC50 (effective concentration to reach 50% maximal response) was determined from the dose response plot.

human GPR40 [2] = molecular target: T1, human GPR40; test: Inositol phosphate accumulation assay; assay type: cell-based; conditions: A9 cell line stably transfected with GPR40; 1 hour at 37° C.; read-out: IP3 EC50
Procedure: An A9 cell line stably transfected with GPR40 (A9_GPR40) was used in IP accumulation assays. A9_GPR40 cells were plated in 96-well plates containing 20,000 cells/well in DMEM containing 10% FBS. After the cells attached to the well surface, the media was replaced with inositol free DMEM containing 10% dialyzed FBS and 1 μCi, mL ^3H-inositol and incubated for 16 hours. Compounds were diluted in HBSS/10 mM LiCl containing a desired amount of HSA and added directly to cells. Following 1 hour incubation at 37° C., the media was replaced with 100 μL of 20 mM formic acid to quench the reaction. 50 μL of the extract was then added to 100 μL of SPA beads, incubated overnight, and measured on a TopCount the following day.

T1 sequence (O14842 whole entry): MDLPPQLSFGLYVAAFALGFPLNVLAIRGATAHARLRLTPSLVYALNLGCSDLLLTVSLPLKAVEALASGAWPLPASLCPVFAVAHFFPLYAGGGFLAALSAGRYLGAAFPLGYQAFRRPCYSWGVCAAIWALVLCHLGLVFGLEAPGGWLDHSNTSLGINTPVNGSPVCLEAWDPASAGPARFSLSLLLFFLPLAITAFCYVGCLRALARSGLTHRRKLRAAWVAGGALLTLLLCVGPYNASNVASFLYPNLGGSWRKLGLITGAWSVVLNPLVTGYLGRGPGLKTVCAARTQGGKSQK

| Structure (SMILES) | EC50 (human GPR40 [1]) | EC50 (human GPR40 [2]) |
| --- | --- | --- |
| CCCOc1ccc(COc2ccc3c(c2)[C@]2(CCC3)C[C@H]2C(=O)O)cc1[C@@H]1CCCC1(C)C (single isomer, unassigned) [Example 129] | 1000 to 10000 nM | 100 to 1000 nM |
| CC(C)COc1ccc(COc2ccc3c(c2)[C@]2(CCC3)C[C@H]2C(=O)O)cc1[C@@H]1CCCC1(C)C (single isomer, unassigned) [Example 130] | 1000 to 10000 nM | 100 to 1000 nM |
| COCCOc1ccc(COc2ccc3c(c2)[C@]2(CCC3)C[C@H]2C(=O)O)cc1[C@@H]1CCCC1(C)C (single isomer, unassigned) [Example 131] | 1000 to 10000 nM | 100 to 1000 nM |
| COc1ccc(F)c(-c2ccc(COc3ccc4c(c3)[C@]3(CC4)C[C@H]3C(=O)O)cc2C2=CCCC2(C)C)c1 [Example 1] | 100 to 1000 nM | < 10 nM |
| COc1ccc(F)c(-c2ccc(COc3ccc4c(c3)[C@]3(CC4)C[C@H]3C(=O)O)cc2CC(C)(C)C)c1 [Example 13] | 10 to 100 nM | < 10 nM |
| COc1ccc(F)c(-c2ccc(COc3ccc4c(c3)[C@]3(CC4)C[C@H]3C(=O)O)cc2C2=CCCC2)c1 [Example 20] | 100 to 1000 nM | 10 to 100 nM |
| COc1ccc(F)c(-c2ccc(COc3ccc4c(c3)[C@]3(CC4)C[C@H]3C(=O)O)cc2C2(OC)CCCC2)c1 [Example 22] | 100 to 1000 nM | 10 to 100 nM |
| CCCCOc1cc(COc2ccc3c(c2)[C@]2(CC3)C[C@H]2C(=O)O)ccc1-c1cc(OC)ccc1F [Example 24] | 100 to 1000 nM | 10 to 100 nM |
| CCCCOc1cc(COc2ccc3c(c2)[C@]2(CC3)C[C@H]2C(=O)O)ccc1-c1cccc(OC)c1 [Example 25] | 100 to 1000 nM | 100 to 1000 nM |
| COc1ccc(F)c(-c2ccc(COc3ccc4c(c3)[C@]3(CCC4)C[C@H]3C(=O)O)cc2C2=CCCC2(C)C)c1 [Example 49] | 100 to 1000 nM | 10 to 100 nM |
| COc1cc(-c2ccc(COc3ccc4c(c3F)[C@]3(CCC4)C[C@H]3C(=O)O)cc2[C@@H]2CCCC2(C)C)c(F)cn1 [Example 55] | 100 to 1000 nM | < 10 nM |

Further lines, results first:

| EC50 (human GPR40 [1]) | EC50 (human GPR40 [2]) | Structure (SMILES) |
| --- | --- | --- |
| 100 to 1000 nM | 100 to 1000 nM | COc1cc(-c2ccc(COc3cc4c(cn3)CC[C@@]43C[C@@H]3C(=O)O)cc2[C@@H](OC)C(C)(C)C)c(F)cn1 (single isomer, unassigned) [Example 59, (2′S,5S)-3-({4-(5-Fluoro-2-methoxypyridin-4-yl)-3-[(1S)-1-methoxy-2,2-dimethylpropyl]phenyl}methoxy)-6,7-dihydrospiro[cyclopenta[c]pyridine-5,1′-cyclopropane]-2′-carboxylic acid or (2′S,5S)-3-({4-(5-fluoro-2-methoxypyridin-4-yl)-3-[(1R)-1-methoxy-2,2-dimethylpropyl]phenyl}methoxy)-6,7-dihydrospiro[cyclopenta[c]pyridine-5,1′-cyclopropane]-2′-carboxylic acid] |
| 100 to 1000 nM | < 10 nM | COc1cc(-c2ccc(COc3cc(F)c4c(c3F)[C@]3(CC4)C[C@H]3C(=O)O)cc2[C@H](OC)C(C)(C)C)c(F)cn1 (single isomer, unassigned) [Example 127] |
| 100 to 1000 nM | 10 to 100 nM | COc1ccc(F)c(-c2ccc(COc3ccc4c(c3)C3(CC4)CCC3C(=O)O)cc2[C@@H]2CCCC2(C)C)c1 (single isomer, unassigned) [Example 148] |
| 100 to 1000 nM | < 10 nM | COc1ccc(F)c(-c2ccc(COc3ccc4c(c3)C3(CC4)CCC3C(=O)O)cc2C(OC)C(C)(C)C)c1 (single isomer, unassigned) [Example 149] |
| 100 to 1000 nM | < 10 nM | COc1cc(-c2ccc(COc3ccc4c(c3)[C@]3(CC4)CC[C@@H]3C(=O)O)cc2[C@@H]2CCCC2(C)C)c(F)cn1 (single isomer, unassigned) [Example 150] |
| 100 to 1000 nM | 10 to 100 nM | COc1ccc(F)c(-c2ccc(COc3ccc4c(c3)[C@]3(CC4)CC[C@@H]3C(=O)O)cc2C2=CCCC2(C)C)c1 (single isomer, unassigned) [Example 151] |
| 100 to 1000 nM | 10 to 100 nM | COc1ccc(F)c(-c2ccc(COc3ccc4c(c3)[C@]3(CCC4)CC[C@@H]3C(=O)O)cc2[C@@H]2CCCC2(C)C)c1 (single isomer, unassigned) [Example 154] |
| 100 to 1000 nM | < 10 nM | COc1ccc(F)c(-c2ccc(COc3ccc4c(c3)C3(CCC4)CCC3C(=O)O)cc2C(OC)C(C)(C)C)c1 (single isomer, unassigned) [Example 155] |
| 100 to 1000 nM | 10 to 100 nM | COc1cc(-c2ccc(COc3ccc4c(c3)C3(CCC4)CCC3C(=O)O)cc2[C@@H]2CCCC2(C)C)c(F)cn1 (single isomer, unassigned) [Example 156] |
| 100 to 1000 nM | 10 to 100 nM | COc1ccc(F)c(-c2ccc(COc3ccc4c(c3)[C@]3(CCC4)CC[C@@H]3C(=O)O)cc2C2=CCCC2(C)C)c1 (single isomer, unassigned) [Example 158] |
| 100 to 1000 nM | 10 to 100 nM | COc1cc(-c2ccc(COc3ccc4c(c3F)[C@]3(CC4)C[C@H]3C(=O)O)cc2[C@@H]2CCCC2(C)C)c(Cl)cn1 (stereo in doubt) [Example 125] |
| 10 to 100 nM | < 10 nM | COc1cc(-c2ccc(COc3ccc4c(c3)[C@]3(CC4)C[C@H]3C(=O)O)cc2[C@@H]2CCCC2(C)C)c(F)cn1 [Example 19, (1R,2R)-6′-(3-((R)-2,2-Dimethylcyclopentyl)-4-(5-fluoro-2-methoxypyridin-4-yl)benzyloxy)-2′,3′-dihydrospiro[cyclopropane-1,1′-indene]-2-carboxylic acid] |
| 10 to 100 nM | < 10 nM | COc1cc(-c2ccc(COc3ccc4c(c3)[C@]3(CCC4)C[C@H]3C(=O)O)cc2[C@@H]2CCCC2(C)C)c(F)cn1 [Example 48] |
